Source: patent publication US12084467B2, “Therapeutic compounds for HIV virus infection” (Gilead Sciences, Inc., priority 2021, dated 2024)
≈ marks a conversion by molar mass, not a printed value.

Legend:
[1] = Solubility in simulated intestinal fluids (FaSSIF / FeSSIF); conditions: 25 °C, thermodynamic from solid
[2] = Kinetic solubility analysis (CLND: total chemiluminescent nitrogen determination); conditions: 1.0% DMSO, 24-hour incubation at ambient temperature, maximum theoretical concentration 100 μM; for pH 2 solubility: 0.1N HCl; for pH 7 solubility: 1×PBS buffer (pH 7.4)
[3] = fasted state simulated intestinal fluid (FaSSIF), fassif
[4] = fed state simulated intestinal fluid (FeSSIF), fessif

SMILES	solubility [1, 3]	solubility [1, 4]	pH 2 solubility [2]	pH 7 solubility [2]	solubility ([1]; fassif)
CC(C)(C#Cc1ccc(-c2ccc(Cl)c3c(N(C(=O)c4ccccc4COP(=O)(O)O)S(C)(=O)=O)nn(CC(F)(F)F)c23)c([C@H](Cc2cc(F)cc(F)c2)NC(=O)Cn2nc(C(F)(F)F)c3c2C(F)(F)[C@@H]2C[C@H]32)n1)S(C)(=O)=O [Compound 22, 2-((4-chloro-7-(2-((S)-1-(2-((3bS,4aR)-5,5-difluoro-3-(trifluoromethyl)-3b,4,4a,5-tetrahydro-1H-cyclopropa[3,4]cyclopenta[1,2-c]pyrazol-1-yl)acetamido)-2-(3,5-difluorophenyl)ethyl)-6-(3-methyl-3-(methylsulfonyl)but-1-yn-1-yl)pyridin-3-yl)-1-(2,2,2-trifluoroethyl)-1H-indazol-3-yl)(methylsulfonyl)carbamoyl)benzyl dihydrogen phosphate]	618 µg/mL	534 µg/mL	1 μM	100 μM	–
CC(C)(C#Cc1ccc(-c2ccc(Cl)c3c(N(C(=O)N4CCOC[C@H]4C(=O)OCOP(=O)(O)O)S(C)(=O)=O)nn(CC(F)(F)F)c23)c([C@H](Cc2cc(F)cc(F)c2)NC(=O)Cn2nc(C(F)(F)F)c3c2C(F)(F)[C@@H]2C[C@H]32)n1)S(C)(=O)=O [Compound 23, (phosphonooxy)methyl (S)-4-((4-chloro-7-(2-((S)-1-(2-((3bS,4aR)-5,5-difluoro-3-(trifluoromethyl)-3b,4,4a,5-tetrahydro-1H-cyclopropa[3,4]cyclopenta[1,2-c]pyrazol-1-yl)acetamido)-2-(3,5-difluorophenyl)ethyl)-6-(3-methyl-3-(methylsulfonyl)but-1-yn-1-yl)pyridin-3-yl)-1-(2,2,2-trifluoroethyl)-1H-indazol-3-yl)(methylsulfonyl)carbamoyl)morpholine-3-carboxylate]	377 µg/mL (≈ 305 µM)	139 µg/mL (≈ 113 µM)	2 μM	17 μM	–
CC(C)(C#Cc1ccc(-c2ccc(Cl)c3c(N(C(=O)N4CC(C(=O)O)C4)S(C)(=O)=O)nn(CC(F)(F)F)c23)c([C@H](Cc2cc(F)cc(F)c2)NC(=O)Cn2nc(C(F)(F)F)c3c2C(F)(F)[C@@H]2C[C@H]32)n1)S(C)(=O)=O [Compound 24, 1-((4-chloro-7-(2-((S)-1-(2-((3bS,4aR)-5,5-difluoro-3-(trifluoromethyl)-3b,4,4a,5-tetrahydro-1H-cyclopropa[3,4]cyclopenta[1,2-c]pyrazol-1-yl)acetamido)-2-(3,5-difluorophenyl)ethyl)-6-(3-methyl-3-(methylsulfonyl)but-1-yn-1-yl)pyridin-3-yl)-1-(2,2,2-trifluoroethyl)-1H-indazol-3-yl)(methylsulfonyl)carbamoyl)azetidine-3-carboxylic acid]	75 µg/mL (≈ 68.5 µM)	21 µg/mL (≈ 19.2 µM)	1 μM	100 μM	–
CC(C)(C#Cc1ccc(-c2ccc(Cl)c3c(N(C(=O)N4CCC[C@H]4COP(=O)(O)O)S(C)(=O)=O)nn(CC(F)(F)F)c23)c([C@H](Cc2cc(F)cc(F)c2)NC(=O)Cn2nc(C(F)(F)F)c3c2C(F)(F)[C@@H]2C[C@H]32)n1)S(C)(=O)=O [Compound 29, ((S)-1-((4-chloro-7-(2-((S)-1-(2-((3bS,4aR)-5,5-difluoro-3-(trifluoromethyl)-3b,4,4a,5-tetrahydro-1H-cyclopropa[3,4]cyclopenta[1,2-c]pyrazol-1-yl)acetamido)-2-(3,5-difluorophenyl)ethyl)-6-(3-methyl-3-(methylsulfonyl)but-1-yn-1-yl)pyridin-3-yl)-1-(2,2,2-trifluoroethyl)-1H-indazol-3-yl)(methylsulfonyl)carbamoyl)pyrrolidin-2-yl)methyl dihydrogen phosphate]	802 µg/mL	536 µg/mL	1 μM	98 μM	–
CC(C)(C#Cc1ccc(-c2ccc(Cl)c3c(N(C(=O)N4CCC[C@H]4CNC(=O)OCOP(=O)(O)O)S(C)(=O)=O)nn(CC(F)(F)F)c23)c([C@H](Cc2cc(F)cc(F)c2)NC(=O)Cn2nc(C(F)(F)F)c3c2C(F)(F)[C@@H]2C[C@H]32)n1)S(C)(=O)=O [Compound 32, (phosphonooxy)methyl (((S)-1-((4-chloro-7-(2-((S)-1-(2-((3bS,4aR)-5,5-difluoro-3-(trifluoromethyl)-3b,4,4a,5-tetrahydro-1H-cyclopropa[3,4]cyclopenta[1,2-c]pyrazol-1-yl)acetamido)-2-(3,5-difluorophenyl)ethyl)-6-(3-methyl-3-(methylsulfonyl)but-1-yn-1-yl)pyridin-3-yl)-1-(2,2,2-trifluoroethyl)-1H-indazol-3-yl)(methylsulfonyl)carbamoyl)pyrrolidin-2-yl)methyl)carbamate]	478 µg/mL (≈ 383 µM)	306 µg/mL (≈ 245 µM)	1 μM	100 μM	–
CC(C)(C#Cc1ccc(-c2ccc(Cl)c3c(N(C(=O)N4CCC[C@H]4CN(CC(=O)O)C(=O)OCOP(=O)(O)O)S(C)(=O)=O)nn(CC(F)(F)F)c23)c([C@H](Cc2cc(F)cc(F)c2)NC(=O)Cn2nc(C(F)(F)F)c3c2C(F)(F)[C@@H]2C[C@H]32)n1)S(C)(=O)=O [Compound 33, N—(((S)-1-((4-chloro-7-(2-((S)-1-(2-((3bS,4aR)-5,5-difluoro-3-(trifluoromethyl)-3b,4,4a,5-tetrahydro-1H-cyclopropa[3,4]cyclopenta[1,2-c]pyrazol-1-yl)acetamido)-2-(3,5-difluorophenyl)ethyl)-6-(3-methyl-3-(methylsulfonyl)but-1-yn-1-yl)pyridin-3-yl)-1-(2,2,2-trifluoroethyl)-1H-indazol-3-yl)(methylsulfonyl)carbamoyl)pyrrolidin-2-yl)methyl)-N-(((phosphonooxy)methoxy)carbonyl)glycine]	–	–	1 μM	100 μM	5020 µg/mL (≈ 3840 µM)
CC(C)(C#Cc1ccc(-c2ccc(Cl)c3c(N(C(=O)N4CCC[C@H]4CN(CCC(=O)O)C(=O)OCOP(=O)(O)O)S(C)(=O)=O)nn(CC(F)(F)F)c23)c([C@H](Cc2cc(F)cc(F)c2)NC(=O)Cn2nc(C(F)(F)F)c3c2C(F)(F)[C@@H]2C[C@H]32)n1)S(C)(=O)=O [Compound 34, 3-((((S)-1-((4-chloro-7-(2-((S)-1-(2-((3bS,4aR)-5,5-difluoro-3-(trifluoromethyl)-3b,4,4a,5-tetrahydro-1H-cyclopropa[3,4]cyclopenta[1,2-c]pyrazol-1-yl)acetamido)-2-(3,5-difluorophenyl)ethyl)-6-(3-methyl-3-(methylsulfonyl)but-1-yn-1-yl)pyridin-3-yl)-1-(2,2,2-trifluoroethyl)-1H-indazol-3-yl)(methylsulfonyl)carbamoyl)pyrrolidin-2-yl)methyl)(((phosphonooxy)methoxy)carbonyl)amino)propanoic acid]	861 µg/mL (≈ 652 µM)	1710 µg/mL (≈ 1290 µM)	1 μM	100 μM	–
